In ChEMBL document CHEMBL3120141, “Discovery of (1R,6S)-5-[4-(1-cyclobutyl-piperidin-4-yloxy)-phenyl]-3,4-diaza-bicyclo[4.1.0]hept-4-en-2-one (R,S-4a): histamine H(3) receptor inverse agonist demonstrating potent cognitive enhancing and wake promoting activity” (Bioorg Med Chem Lett, 2014):

Columns and labels:
[1] = system: Liver microsome; test: Metabolic stability in human liver microsomes; assay type: ADME
[2] = organism: Homo sapiens; test: Selectivity ratio for human histamine H3 receptor over human histamine H1 receptor
[3] = organism: Homo sapiens; test: Selectivity ratio for human histamine H3 receptor over human histamine H4 receptor
[4] = target: Cytochrome P450 3A4 (Homo sapiens, UniProt P08684); test: Inhibition of CYP3A4 (unknown origin); assay type: ADME; conditions: human
Cytochrome P450 3A4, sequence (P08684 whole entry): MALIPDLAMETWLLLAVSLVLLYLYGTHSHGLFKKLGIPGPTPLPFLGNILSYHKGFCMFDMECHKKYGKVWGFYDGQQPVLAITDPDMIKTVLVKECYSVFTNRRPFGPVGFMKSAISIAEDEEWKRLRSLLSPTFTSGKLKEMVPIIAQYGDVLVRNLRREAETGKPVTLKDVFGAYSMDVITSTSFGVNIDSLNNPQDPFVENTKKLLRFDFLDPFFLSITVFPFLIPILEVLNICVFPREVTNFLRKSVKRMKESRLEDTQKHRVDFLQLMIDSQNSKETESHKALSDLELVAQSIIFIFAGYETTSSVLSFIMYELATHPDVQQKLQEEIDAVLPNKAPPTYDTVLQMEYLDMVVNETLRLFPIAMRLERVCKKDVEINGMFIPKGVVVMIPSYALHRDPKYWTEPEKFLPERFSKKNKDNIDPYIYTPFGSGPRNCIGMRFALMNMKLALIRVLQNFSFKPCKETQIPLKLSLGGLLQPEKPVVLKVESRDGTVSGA

[5] = target: Cytochrome P450 2D6 (Homo sapiens, UniProt P10635); test: Inhibition of CYP2D6 (unknown origin); assay type: ADME; conditions: human
Cytochrome P450 2D6, sequence (P10635 whole entry): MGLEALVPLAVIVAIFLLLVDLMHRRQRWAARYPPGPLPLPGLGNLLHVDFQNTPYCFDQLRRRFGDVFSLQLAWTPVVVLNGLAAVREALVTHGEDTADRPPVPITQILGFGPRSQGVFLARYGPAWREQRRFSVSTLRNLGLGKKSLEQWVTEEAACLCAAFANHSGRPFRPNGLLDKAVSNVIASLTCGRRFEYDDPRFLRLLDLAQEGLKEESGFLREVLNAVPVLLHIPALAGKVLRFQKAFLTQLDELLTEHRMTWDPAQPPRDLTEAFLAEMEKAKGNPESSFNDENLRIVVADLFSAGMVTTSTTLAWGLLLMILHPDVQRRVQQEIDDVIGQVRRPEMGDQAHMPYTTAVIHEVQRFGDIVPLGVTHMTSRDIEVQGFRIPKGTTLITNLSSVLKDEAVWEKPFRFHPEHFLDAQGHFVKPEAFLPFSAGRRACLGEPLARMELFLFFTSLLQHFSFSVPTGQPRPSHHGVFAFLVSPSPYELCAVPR

[6] = organism: Homo sapiens; test: Selectivity ratio for human histamine H3 receptor over human histamine H2 receptor
[7] = system: Liver microsome; test: Metabolic stability in rat liver microsomes; assay type: ADME
[8] = target: Histamine H3 receptor (Homo sapiens, UniProt Q9Y5N1); test: Displacement of [3H]NAMH from human histamine H3 receptor transfected in CHO cells; assay type: cell-based
Histamine H3 receptor (Homo sapiens, UniProt Q9Y5N1), sequence (Q9Y5N1 whole entry): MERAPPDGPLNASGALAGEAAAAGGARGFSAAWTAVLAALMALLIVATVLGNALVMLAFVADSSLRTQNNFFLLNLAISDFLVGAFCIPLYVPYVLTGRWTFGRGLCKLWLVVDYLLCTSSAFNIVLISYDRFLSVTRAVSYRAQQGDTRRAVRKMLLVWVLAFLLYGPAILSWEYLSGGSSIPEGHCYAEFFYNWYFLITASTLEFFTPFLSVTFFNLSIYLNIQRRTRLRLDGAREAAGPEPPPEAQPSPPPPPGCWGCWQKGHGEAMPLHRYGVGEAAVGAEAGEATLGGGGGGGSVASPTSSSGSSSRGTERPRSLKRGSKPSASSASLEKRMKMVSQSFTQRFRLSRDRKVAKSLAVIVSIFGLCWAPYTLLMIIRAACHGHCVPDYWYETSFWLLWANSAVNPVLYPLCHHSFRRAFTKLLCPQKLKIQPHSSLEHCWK

[9] = system: Liver microsome; test: Metabolic stability in dog liver microsomes; assay type: ADME, Canis lupus familiaris
[10] = target: T1, Cytochrome P450 1A2 (Homo sapiens, UniProt P05177); test: Inhibition of CYP1A2 (unknown origin); assay type: ADME; conditions: human
T1 sequence (P05177 whole entry): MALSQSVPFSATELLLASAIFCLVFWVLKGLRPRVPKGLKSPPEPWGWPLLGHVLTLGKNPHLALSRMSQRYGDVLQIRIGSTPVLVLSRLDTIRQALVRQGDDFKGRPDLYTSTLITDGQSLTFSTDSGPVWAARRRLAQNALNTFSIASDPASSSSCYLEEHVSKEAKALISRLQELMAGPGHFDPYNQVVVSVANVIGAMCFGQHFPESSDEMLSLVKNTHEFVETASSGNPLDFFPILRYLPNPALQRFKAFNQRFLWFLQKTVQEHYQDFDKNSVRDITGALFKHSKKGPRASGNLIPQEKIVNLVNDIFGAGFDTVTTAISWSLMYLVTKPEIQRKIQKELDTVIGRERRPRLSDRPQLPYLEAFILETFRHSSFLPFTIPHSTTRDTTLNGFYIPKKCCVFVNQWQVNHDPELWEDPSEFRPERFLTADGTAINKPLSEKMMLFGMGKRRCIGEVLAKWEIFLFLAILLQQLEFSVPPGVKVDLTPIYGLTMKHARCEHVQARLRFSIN

[11] = target: Histamine H3 receptor (Rattus norvegicus, UniProt Q9QYN8); test: Displacement of [3H]NAMH from rat histamine H3 receptor transfected in CHO cells; assay type: cell-based
Histamine H3 receptor (Rattus norvegicus, UniProt Q9QYN8), sequence (Q9QYN8 whole entry): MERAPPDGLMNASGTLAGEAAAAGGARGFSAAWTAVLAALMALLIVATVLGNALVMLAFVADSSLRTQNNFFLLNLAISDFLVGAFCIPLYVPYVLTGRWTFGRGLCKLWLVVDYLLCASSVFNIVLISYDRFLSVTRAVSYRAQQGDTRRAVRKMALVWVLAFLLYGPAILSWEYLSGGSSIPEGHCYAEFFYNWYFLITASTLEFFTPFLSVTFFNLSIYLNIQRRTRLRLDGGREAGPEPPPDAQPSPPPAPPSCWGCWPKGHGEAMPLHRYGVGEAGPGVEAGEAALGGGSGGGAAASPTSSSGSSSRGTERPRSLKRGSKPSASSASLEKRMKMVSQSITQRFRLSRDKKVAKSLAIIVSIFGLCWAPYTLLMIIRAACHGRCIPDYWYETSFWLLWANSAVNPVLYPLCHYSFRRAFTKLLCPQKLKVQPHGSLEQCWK

[12] = Metabolic stability in mouse liver microsomes; assay type: ADME, Microsome
[13] = target: Cytochrome P450 2C19 (Homo sapiens, UniProt P33261); test: Inhibition of CYP2C19 (unknown origin); assay type: ADME; conditions: human
Cytochrome P450 2C19, sequence (P33261 whole entry): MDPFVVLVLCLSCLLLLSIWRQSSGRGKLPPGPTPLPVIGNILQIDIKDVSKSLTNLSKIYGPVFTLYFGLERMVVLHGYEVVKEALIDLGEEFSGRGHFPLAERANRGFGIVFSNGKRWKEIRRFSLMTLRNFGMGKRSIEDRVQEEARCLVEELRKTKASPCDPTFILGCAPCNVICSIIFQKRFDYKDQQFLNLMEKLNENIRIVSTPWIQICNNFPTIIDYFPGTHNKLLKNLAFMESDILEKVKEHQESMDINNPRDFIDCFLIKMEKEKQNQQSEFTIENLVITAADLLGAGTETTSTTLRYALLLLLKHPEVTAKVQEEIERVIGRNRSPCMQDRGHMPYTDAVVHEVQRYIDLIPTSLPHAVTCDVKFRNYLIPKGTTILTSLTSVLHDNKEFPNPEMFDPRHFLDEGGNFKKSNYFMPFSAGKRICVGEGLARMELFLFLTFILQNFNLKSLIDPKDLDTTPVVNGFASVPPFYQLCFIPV

[14] = target: Cytochrome P450 2C9 (Homo sapiens, UniProt P11712); test: Inhibition of CYP2C9 (unknown origin); assay type: ADME; conditions: human
Cytochrome P450 2C9, sequence (P11712 whole entry): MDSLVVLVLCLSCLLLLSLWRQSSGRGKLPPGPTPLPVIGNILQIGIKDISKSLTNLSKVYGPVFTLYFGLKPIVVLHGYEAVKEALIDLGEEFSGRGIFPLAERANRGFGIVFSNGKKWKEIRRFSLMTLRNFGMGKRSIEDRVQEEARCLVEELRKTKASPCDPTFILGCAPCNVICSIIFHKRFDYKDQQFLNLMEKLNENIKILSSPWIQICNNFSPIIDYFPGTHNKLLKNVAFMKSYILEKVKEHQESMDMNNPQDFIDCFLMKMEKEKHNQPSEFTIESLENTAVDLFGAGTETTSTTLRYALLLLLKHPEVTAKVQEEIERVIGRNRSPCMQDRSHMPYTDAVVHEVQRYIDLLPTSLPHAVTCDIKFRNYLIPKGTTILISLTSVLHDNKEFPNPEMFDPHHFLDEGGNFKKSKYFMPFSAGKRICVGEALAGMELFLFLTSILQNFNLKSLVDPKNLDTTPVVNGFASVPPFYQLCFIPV

[15] = Oral bioavailability in rat; assay type: ADME, organism-based; conditions: in vivo

| SMILES | Stability [1] | Selectivity ratio [2] | Selectivity ratio [3] | inhibition (INH) [4] | inhibition (INH) [5] | Selectivity ratio [6] | Stability [7] | Ki [8] | Stability [9] | inhibition (INH) [10] | Ki [11] | Stability [12] | inhibition (INH) [13] | inhibition (INH) [14] | bioavailability [15] |
| --- | --- | --- | --- | --- | --- | --- | --- | --- | --- | --- | --- | --- | --- | --- | --- |
| CC(C)N1CCC(Oc2ccc(C3=NNC(=O)C4CC34)cc2)CC1 (racemic) | Stable | > 1000 | > 1000 | Not Active | Not Active | > 1000 | Stable | 9.1 nM | Stable | Not Active | 51 nM | Stable | Not Active | Not Active |  |
| CN1N=C(c2ccc(OC3CCN(C4CCC4)CC3)cc2)C2CC2C1=O (racemic) | Stable | > 1000 | > 1000 |  |  | > 1000 | Stable | 4 nM | Stable |  | 6.9 nM | Stable |  |  | 6% |
| O=C1C2CC2C(c2ccc(OC3CCN(C4CCC4)CC3)cc2)=NN1c1ccc(F)cc1 (racemic) |  | > 1000 | > 1000 |  |  | > 1000 |  | 3.5 nM |  |  | 6.7 nM |  |  |  |  |

More lines, in order of falling Ki [8], values ahead:

| Stability [1] | Selectivity ratio [2] | Selectivity ratio [3] | inhibition (INH) [4] | inhibition (INH) [5] | Selectivity ratio [6] | Stability [7] | Ki [8] | Stability [9] | inhibition (INH) [10] | Ki [11] | Stability [12] | inhibition (INH) [13] | inhibition (INH) [14] | bioavailability [15] | SMILES |
| --- | --- | --- | --- | --- | --- | --- | --- | --- | --- | --- | --- | --- | --- | --- | --- |
|  | > 1000 | > 1000 |  |  | > 1000 |  | 4.5 nM |  |  | 8 nM |  |  |  |  | CCN1N=C(c2ccc(OC3CCN(C4CCC4)CC3)cc2)C2CC2C1=O (racemic) |
|  | > 1000 | > 1000 |  |  | > 1000 |  | 4 nM |  |  | 17 nM |  |  |  |  | CC(C)N1CCC(Oc2ccc(C3=NN(C)C(=O)C4CC34)cc2)CC1 (racemic) |
| Stable | > 1000 | > 1000 | Not Active | Not Active | > 1000 | Stable | 3.7 nM | Stable | Not Active | 8.1 nM | Stable | Not Active | Not Active |  | O=C1NN=C(c2ccc(OC3CCN(C4CCCC4)CC3)cc2)C2CC12 (racemic) |
